Assay results from US8481494B2, “Compounds for the treatment of diseases related to protein misfolding” (priority 2009, dated 2013).
≈ marks a conversion by molar mass, not a printed value.

Experiments:
[1] = molecular target: T1, Aβ(1-42) (Homo sapiens, UniProt P05067); test: ThT kinetics of Aβ aggregation; format: biochemical; conditions: in words
T1 construct: Aβ(1-42)-peptide (Bachem, Bubendorf, Germany) was prepared in HFIP; purchased Bachem, Bubendorf
Description: The influence of the new β-sheet ligands, based on the aminopyrazole-trimer, on the Aβ self-assembly process was first studied kinetically. Reference curves were obtained independently for both Aβ (1-40) and Aβ (1-42). In a typical experiment, one third (⅓) equivalent of thioflavine T was added to a solution of monomeric Aβ in PBS buffer, prepared in HFIP. The increase in ThT fluorescence was monitored over time, as a measure of the total amount of accumulating aggregates. […] Both peptides reached a plateau after ˜3 days, which was set as standard time period for all consecutive aggregation assays.
Care was taken to eliminate fluorescence changes induced by any other events than the aggregation process; thus each ligand was separately shown to be non-fluorescent and not to alter Tht fluorescence in mixtures. Controls with pure Aβ were identical in peptide concentration as well as buffer and solvent composition. […] Aβ (1-42): Much more impressive is the inhibitory influence of the trimeric ligands on the aggregation kinetics of the full-length Aβ (1-42). […]
Then, a mixture of 9.5 μL ThT (62.7 μM stock solution), 6 μL PBS and 38.1 μL water (bidest.) was pipetted. […] Sixty μL of aggregation mixtures were pipetted in a 384-well plate and the fluorescence intensity (exc. at 446 nm, em. at 490 nm) was measured every hour at 37° C. […]

[2] = molecular target: T2, Oregon-Green-labeled Aβ (Homo sapiens, UniProt P05067); test: Sedimentation analysis (analytical ultracentrifugation) of Aβ with ligand; format: binding
T2 construct: aggregation mixtures of Aβ(1-42)/Aβ42-OG (17.5 nM/3.5 μM) in 10 mM NaPi, pH 7.4
T2 sequence (P05067 672-713 limits assumed): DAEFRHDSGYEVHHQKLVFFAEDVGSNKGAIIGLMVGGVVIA
T2 sequence (P05067 672-713 limits assumed): as above
Description: (§1) In a standard FCS experiment a 5 nM Oregon-Green-labeled Aβ solution was prepared in PBS buffer with ˜3% DMSO. […] This is not surprising, because it comprises a flat arrangement of unpolar aromatics adorned with polar groups for extensive hydrogen bonding. Finally, TEM pictures were obtained from mature Aβ fibrils ([…]) as well as globular particles (3-30 nm) grown in the absence of aminopyrazole ligands.
FIG. 6A to 6F show the results of sedimentation velocity centrifugation: s-value-distributions of Aβ samples in the presence of Trimer-OH (FIG. 6A, FIG. 6B, FIG. 6C) vs. Trim-TEG-OEt (FIG. 6D, FIG. 6E, FIG. 6F). […] FIG. 6B, FIG. 6E: s-value distributions of the control experiments as determined by 2D-SA and Monte Carlo analysis. FIG. 6C, FIG. 6F: s-value distributions of experiments with 200 μM Trimer derivative after 5 d of incubation as determined by 2D-SA and Monte Carlo analysis.
(§2) Sedimentation velocity centrifugation was performed in an XLA (BeckmanCoulter, Palo Alto, USA) equipped with absorption optics and a four hole titanium rotor. […] Radial scans were recorded at a resolution of 0.002 cm. Detection wavelength was chosen at 493 nm to observe endlabeled FITC or Oregon Green™ and to avoid background absorbance from the test compound.
Sedimentation data were analyzed with UltraScan 9.4 (http://www.ultrascan.uthscsa.edu). […]

[3] = Sedimentation of the pure ligand (self-association); format: physicochemical; conditions: ligand itself
Description: as §1
Such an arrangement may also result in far-reaching conformational effects, indicated already be widening of the upper U-turn; these are now proposed to destroy the existing β-sheet (FIG. 12). The high positive charge of all five lysine residues requires the use of PBS with its high ionic strength for sedimentation experiments. […] Admittedly, their structures are somewhat reminiscent of the amphiphilic hybrid peptides (e.g., KLVFF-EEEEE) presented in the nineties for aggregation prevention by surface tension increase. […]
as §2

[4] = Solubility of the unprotected aminopyrazole trimers (stock solutions); conditions: water (class a) or DMSO (class b)
Description: The ligands were dissolved in 100% DMSO as 4.95 mM stock solutions and were stored at −20° C.

T1 sequence (P05067 672-713 limits assumed): as above

Row | Compound | effect on Aβ aggregation kinetics [1] | molecular weight reduction of Aβ aggregates ([2]; corresponding to decrease to 25 S) [%] | sedimentation coefficient of Aβ complex with ligand ([2]; dose-dependent decrease, pure Aβ above 50 S) [S] | size of micelles formed by self-association of the ligand [3] [S] | solubility [4] [µM]
1 | COC(=O)C(CCCCN)NC(=O)c1cc(NC(=O)c2cc(NC(=O)c3cc([N+](=O)[O-])n[nH]3)n[nH]2)n[nH]1.O=C(O)C(F)(F)F (centres unmarked) [Trimer-Lys-OMe] | accelerates Aβ aggregation |  |  |  | 
2 | O=C(O)c1cc(NC(=O)c2cc(NC(=O)c3cc([N+](=O)[O-])n[nH]3)n[nH]2)n[nH]1 [Trimer-OH, 3-(3-(3-Nitro-1H-pyrazole-5-carboxamido)-1H-pyrazole-5-carboxamido)-1H-pyrazole-5-carboxylic acid] |  | 50 | 25 | ~10 | 200 to 4950 (≈ 75.1 to 1860 µg/mL)
